This is an account of results in a melting point compilation (Tetko et al.; mined from patent text by program, amines drawn as free bases though some values may be those of a salt).

SMILES strings stand for the structures.

Broadly, the melting point is the temperature, or range, at which the solid turns liquid.

Take `COc1cc(C(C)=O)ccc1OCCCN1CCC(c2nsc3ccccc23)CC1`: the melting point was in the range of 93 to 95 °C. The same measure for `Cc1nc[nH]c1CSCCNC(N)=C[N+](=O)[O-]`: 193 to 195 °C; for `C#CCOc1cc(NNC(=S)C(C)(C)C)c(Cl)cc1Cl`: 126 to 128 °C; for `O=C(O)C1CCC2C(=O)OC(=O)C2C1` (stereo unspecified): 250 °C. The same measure for `Cc1nn(-c2c(Cl)cc(C(F)(F)F)cc2Cl)c(NCC(=O)O)c1SC(F)(F)F`: 168 to 170 °C; for `CCCOc1ccccc1NC=C1C(=O)N(c2ccc(C(=O)O)cc2)N=C1C`: 260 °C; for `NC(=O)NC1CCCc2ccsc21` (stereo unspecified): 211 to 213 °C. For `CCCCc1ccc(-c2cnc(-c3ccc(C#N)cc3)nc2)cc1` the value was 94.7 °C; for `CCOc1cccc(CN2CCc3cc(O)ccc3C2)c1`, 120 to 121 °C. In the case of `CCN(CC)Cc1nnc(-c2ncn3c2CN(C)C(=O)c2ccccc2-3)o1`, the melting point lay within 235 to 238 °C. The same measure for `O=c1c2ccccc2oc2cc(OCC3CO3)cc(O)c12` (stereo unspecified): 197 °C.

With `O=S(=O)(Nc1ccc2c(OCc3ccc(Br)cc3F)cccc2c1)C(F)(F)F`, the melting point lay in the range of 123 to 125 °C. For `Cc1ccc(C(O)(Cn2ccnc2)C(C)(C)C)cc1` (stereo unspecified) the value was 135 to 137 °C; for `CCCCC1N=C(Cl)/C(=C2\C(=O)Nc3ccccc32)N1Cc1ccc(C(=O)O)cc1` (stereo unspecified), 241 to 242 °C; for `Cc1cccc(NC(=O)NC2N=C(c3ccccc3F)c3ccccc3N(CC(=O)O)C2=O)c1` (racemic), 167 to 169 °C. As to `CN1C(=O)C(c2ccc(OC(F)(F)F)c(F)c2)(c2ccc(F)c(-c3cncnc3)c2)N=C1N` (stereo unspecified), the melting point is 102 to 110 °C.

The compound `CCCCC1CCCC2=C1C(=O)c1cc(C)c(C)cc1C2=O` (stereo unspecified) had a melting point of 88 to 90 °C. For `COC(=O)CCC(=O)c1ccc(CCCCNC(C)=O)cc1` the value was 94 to 95 °C; for `CNC1=NS(=O)(=O)N=C1NCCSCc1ccc(CN(C)C)s1`, 60.5 to 66 °C; for `CC(O)CCCOc1ccc2nc3[nH]c(=O)[nH]c3cc2c1` (stereo unspecified), 301 to 303 °C.

For the compound `CCOC(=O)CCCCCCC1C(=O)NC(=O)N1CCC(=O)C1CCCCC1` (stereo unspecified), the melting point is 77.5 to 78.5 °C.

In the case of `N#CCCC(=O)c1ccccc1`, the melting point amounted to 69 °C. In the case of `CC(C)(C)c1cc(C2SCC(=O)N2CCCBr)cc(C(C)(C)C)c1O` (stereo unspecified), the melting point lay in the range of 130 to 131 °C.

The compound `O=C1CCC(=O)N1CC(=O)N1c2ccccc2N(Cc2ccccc2)C(=O)[C@H]2CCC[C@H]21` (relative stereo) registered a melting point of 212 to 213 °C.

Consider `COc1ccc(Cn2cnc3c(-c4ccco4)nc(C(F)(F)F)nc32)cc1`, for which the melting point was 149 to 150 °C. The same measure for `Cc1ccc(Sc2nc(-c3ccc(Cl)cc3)c(CCC(=O)O)o2)cc1`: 160 to 161 °C; for `CC1(C)CC(=O)c2c(-c3ccccc3)sc(C#N)c2C1`: 100 to 103 °C; for `CC12CC3CC(C)(C1)CC(C(=O)NCc1cccs1)(C3)C2`: 101 to 103 °C. For `CC(C)/C=C(\C[C@H](N)C(=O)O)C(=O)O` the value was > 200 °C; for `CCCCCCCCc1ccc(C(O)CCCCCC(=O)OC)cc1` (stereo unspecified), 49 to 50 °C. The same measure for `COC(=O)[C@@H](NC(=O)c1ccc(F)c(Br)c1)[C@@H](C)O`: 73 to 74 °C; for `CN(C)S(=O)(=O)c1ccc2c(c1)S(=O)(=O)NC2=O`: 198 to 200 °C; for `N#CCc1ccc2c(c1)Cc1cccnc1O2`: 166 to 167 °C. `CC1(C)C(=O)N(c2ccc(C#N)c(C(F)(F)F)c2)C(=S)N1CCF` came in with a melting point of 135 °C. For `CCOC(=O)C1CCC2(NCCc3cc(OC)c(OC)cc32)C(C2c3cc(OC)c(OC)cc3CCN2CC)C1` (stereo unspecified) the value was 140 to 142 °C.

Regarding `CCOC(=O)C=Cc1cc(OCc2ccccc2)ccc1-c1ccc(-c2cccc(C)c2)c(C(F)F)c1`, the melting point is 124 to 126 °C.

For the compound `CCC(CC)Oc1cc([N+](=O)[O-])ccc1N`, the melting point fell in the range of 62 to 63 °C.

The compound `CC(C)NCC#CC1(O)c2ccccc2-c2ccccc21` gave a melting point of 135 to 137 °C. `NC(CCO)C(=O)Nc1ccc(Cl)cc1Cl` (stereo unspecified) gave a melting point of 89 to 91 °C. For `c1ccc2nc(COc3ccc(CCc4ccc(-c5nnn[nH]5)cc4)cc3)ccc2c1` the value was 203 to 206 °C; for `Cc1c(CC(=O)NCCO[N+](=O)[O-])cc(-c2ccc(S(C)(=O)=O)cc2)n1-c1ccc(F)cc1`, 135 °C.

With `COc1ccc(CCCC(=O)NC(NC(=NC#N)Nc2cccnc2C)C(C)(C)C)cc1` (stereo unspecified), the melting point lay in the range of 65 to 68 °C. Compound `COc1ccc(OC)c(-c2cc(OC)cc3c2OC(CN)C3)c1` (stereo unspecified) had a melting point of 128 to 130 °C. Compound `COC(=O)CCCc1ccc(NC(=O)[C@@H](Cc2ccc(OCc3ccccc3)cn2)NC(=O)OC(C)(C)C)cc1` registered a melting point of 166 to 167 °C. The same measure for `COC(=O)Cc1nc(-c2ccccc2)c2cc(Cl)ccc2n1`: 122 to 123 °C. For `CCCc1nc(Sc2ccc(OC)cc2)c(CC(=O)O)n1Cc1cc2c(cc1Cl)OCO2` the value was 187 °C; for `O=C(O)c1cn(-c2cccc(F)c2)c2cc(Cl)ccc2c1=O`, 284 to 286 °C; for `Cc1cc(Cl)ccc1Cn1nc(C(C)(C)O)c2ccccc21`, 72 to 74 °C.

Turning to `CCc1ccc2c(c1)C(=O)Nc1cccnc1N2C(=O)NCCN1CCCCC1CN(CC)CC` (stereo unspecified), the melting point fell in the range of 124 to 126 °C. The same measure for `COCC1(C)CCOc2ccc(C#Cc3ccc(C(=O)O)cc3)cc21` (stereo unspecified): 202 to 203 °C; for `O=C(Cc1ccncc1)NC(Cc1csc2ccccc12)C(=O)CCc1cc(C(F)(F)F)cc(C(F)(F)F)c1` (stereo unspecified): 184 to 187 °C; for `OCc1csc(N2CCCC2)n1`: 146 to 148 °C. Consider `CC(=O)Nc1ccc(OC(F)F)c(F)c1`, for which the melting point lay in the range of 112 to 113 °C. The same measure for `O=C(Nc1ccncc1)c1ccc(-n2nc(C(F)(F)F)cc2C(F)(F)F)cc1`: 234 to 235 °C; for `O=C(O)CCCCCCOc1ccc(OCc2ccccc2)cc1`: 118 to 119 °C. The same measure for `COCCOCn1cc(C(=O)NCc2ccc(Cl)cc2)c(=O)c2cc(CN3CCOCC3)ccc21`: 150 to 152 °C; for `CC(C)(C)NCC(O)COc1ccccc1CCCc1cccc2[nH]ccc12` (stereo unspecified): 96 °C; for `O=C(Nc1ccc2nc(CN3CCCC3)ccc2c1)c1ccc(-c2ccc(Cl)cc2)cc1`: 200 to 202 °C. For `OCCOc1ccc(-c2nc(-c3ccc(Cl)cc3)nc(-c3ccc(OCCO)cc3O)n2)c(O)c1` the value was 149 to 150 °C; for `O=C1c2ccccc2C(=O)N1CCCCN(CCCCN1C(=O)c2ccccc2C1=O)CCOc1cccc2c1SCCC2`, 66 °C; for `CN(C)S(=O)(=O)n1cc(-c2ccc(Cl)cc2Cl)nc1C(N)=S`, 184 to 187 °C.

Compound `CSc1ccc(-c2csc3ccc(-c4nnc(C)o4)cc23)cc1` registered a melting point of 198 to 199 °C. The same measure for `COc1cc(-c2ccc(=O)[nH]n2)ccc1OC(F)F`: 170 °C; for `CC(C)NNc1ncnc2c1cnn2C`: 57 °C; for `O=C(NC1CN2CCC1CC2)C(O)(c1cccs1)c1cccs1` (stereo unspecified): 169 °C. On to `COc1ccc(C(C#Cc2ccccc2)CN(C)C(=O)C(=O)O)cc1OC1CCCC1` (racemic), for which the melting point was 157 to 159 °C.

On to `CC1C(=O)NN(c2cc(Cl)cc(Cl)c2)C1=O` (stereo unspecified), for which the melting point is 95 to 100 °C. For `Oc1ccccc1Oc1ncc(Cl)cn1` the value was 131 to 139 °C; for `CCCCCCCCNC(=O)/C=C\SC(=O)c1cc(Cl)cc(Cl)c1`, 99 to 102 °C. `COC(=O)c1c(OCc2ccc(-c3ccccc3-c3nnn[nH]3)cc2)cc(C)nc1Cl` registered a melting point of 204 to 207 °C. For `O=C(O)C(S)=Cc1ccc(C(F)(F)F)o1` the value was 158 °C. The same measure for `O=C1NC(=O)C(c2ccc3c(c2)CCCC3)S1` (stereo unspecified): 157 to 158 °C; for `CCc1nn(CCO)c(CC)c1Oc1cc(C#N)cc(SC)c1`: 72 °C; for `CNc1nc(-c2ccc(F)cc2)c(I)c(C(C)C)n1`: 195 to 196 °C. For `O=C(O)CCCC12CCC(=O)N1C(=O)CC2` the value was 178 to 180 °C; for `CN(Cc1ccco1)C(=O)C=C1OC(C)(C)OC1=O`, 83 to 86 °C; for `COc1cc(NC(=O)CCCCCN2CC(C)NC(C)C2)c2nccc(C)c2c1` (stereo unspecified), 94 to 96 °C. In turn, `COc1ccc(CS[C@@H]2CN[C@H](C(=O)O)C2)cc1` yielded a melting point of 198 to 200 °C. The same measure for `CCCCCCc1ccc(-n2c(-c3ccc(Br)cc3)ccc2-c2ccc(Br)cc2)cc1`: 198 to 199 °C; for `O=c1cc(C(F)(F)F)[nH]c(=O)n1-c1cc([N+](=O)[O-])c(Cl)cc1F`: 204 °C. For `CCN(CC)C(=O)c1ccsc1-c1ccc(F)cc1` the value was 62 to 63 °C; for `ClCCc1nc2c(ccc3ccccc32)o1`, 80 to 82 °C; for `CCOC(=O)c1cnn(C)c1S(N)(=O)=O`, 102 to 104 °C. For `CCOC(=O)/C=C/c1cn(C)c2ccccc12` the value was 94 to 98 °C; for `CC(C)(c1ccc([N+](=O)[O-])cc1)c1ccc([N+](=O)[O-])cc1`, 135 to 137 °C; for `COc1ccnc(CSc2nc3cc(OC(F)(F)C(F)F)ccc3[nH]2)c1OC`, 98 to 102 °C. With `N#CC(C#N)=CN(N=C(C#N)C#N)c1cccc(Cl)c1`, the melting point lay in the range of 113 to 115 °C.

`COCc1nc2c(N)nc3ccccc3c2n1CC(C)(C)O` came in with a melting point of 174 to 175 °C.

Consider `Brc1ccc(Br)c2nonc12`, for which the melting point was in the range of 88 to 92 °C. For `O=CN1CCN(c2nc(Cl)nc(Cl)n2)CC1` the value was 163 to 165 °C. For `CC1=NN(c2ccc3c(=O)n(CC(C)C)c(CN)c(-c4ccccc4)c3c2)CO1` the value was 179 to 181 °C.
